From ChEMBL document CHEMBL3507680, “University of Dundee, Gates Library screen for HepG2 cell viability” come the findings set out here.

The data set is described as follows: Human HepG2 cell viability assay in 384 well format. In kind it is toxicity, cell-based. Set-up: dose 125 nL, time 70.5 hour; concentration not given beside the values. Particulars: HepG2 cells, read-out: Inhibition.

As to `O=C(Nc1c(F)cccc1F)N1CC(c2nc(C3CC3)no2)C1`, the cytotoxicity at 70.5 h was -6.67%.

`CCS(=O)(=O)N1CC(c2nc(-c3cccs3)no2)C1`: the cytotoxicity at 70.5 h is -2.02%.

For the compound `COc1ncccc1C(=O)N1CC(c2nc(-c3cccs3)no2)C1`, the cytotoxicity at 70.5 h was -5.8%.

Regarding `CN(C)S(=O)(=O)N1CC(c2nc(-c3ccsc3)no2)C1`, the cytotoxicity at 70.5 h was -6.06%.

As for `O=C(c1ccccc1F)N1CC(c2nc(-c3ccc[nH]c3=O)no2)C1`, the cytotoxicity at 70.5 h is -2.53%.

For the compound `N#Cc1cccc(C(=O)N2CC(c3nc(-c4ccc[nH]c4=O)no3)C2)c1`, the cytotoxicity at 70.5 h was -1.92%.

With `COc1ncccc1C(=O)N1CC(c2nc(-c3ccco3)no2)C1`, the cytotoxicity at 70.5 h came out at 15.9%.

As to `O=C1CCCN1C(CNS(=O)(=O)C1CC1)Cc1cccc(F)c1` (configuration not stated), the cytotoxicity at 70.5 h is -15.5%.

Turning to `Cc1cc(C(=O)NCC(Cc2cccc(F)c2)N2CCCCC2=O)no1` (configuration not stated), the cytotoxicity at 70.5 h was -2.65%.

As for `CN(C)S(=O)(=O)NCC(Cc1cccc(F)c1)N1CCNC1=O` (configuration not stated), the cytotoxicity at 70.5 h is -2.09%.

For `CC(C)S(=O)(=O)NCC(Cc1cccc(F)c1)N1CCNC1=O` (configuration not stated), the cytotoxicity at 70.5 h is -15.5%.

As to `CCOCC(=O)NCC(Cc1cccc(F)c1)n1cccc1` (configuration not stated), the cytotoxicity at 70.5 h was -1.33%.

On to `O=C(Nc1ccccc1F)C1CN(C(=O)c2ccc3c(c2)OCO3)C1`, for which the cytotoxicity at 70.5 h was -11.5%.

For the compound `CC(=O)N1CC(C(=O)Nc2cccc(OC(F)F)c2)C1`, the cytotoxicity at 70.5 h is -3.71%.

In the case of `O=C(Nc1cccc(OC(F)F)c1)C1CN(S(=O)(=O)C2CC2)C1`, the cytotoxicity at 70.5 h was 0.345%.

Take `O=C(CC1CCCCC1)N1CCOCC1CO` (configuration not stated): the cytotoxicity at 70.5 h was -14.9%.

Consider `c1ccc2c(c1)CCN2c1nc(N2CCOCC2)c2nn[nH]c2n1`, for which the cytotoxicity at 70.5 h was found to be 32.9%.

Regarding `O=S(=O)(NCC1CCN(c2cnccn2)CC1)C1CC1`, the cytotoxicity at 70.5 h is 30.4%.

As for `CC(=O)c1ccc(S(=O)(=O)NCC2CCN(c3cnccn3)CC2)cc1`, the cytotoxicity at 70.5 h was -4.91%.

On to `CCCc1nnsc1C(=O)NCC1CCN(C(=O)c2ccncc2)CC1`, for which the cytotoxicity at 70.5 h was determined as 25.7%.

For the compound `COc1cccc(C(=O)NCC2CCN(C(=O)c3ccoc3)CC2)c1`, the cytotoxicity at 70.5 h was -3.78%.

Regarding `COc1ccc(CCC(=O)NCCN2CCC(c3cccs3)CC2)cc1`, the cytotoxicity at 70.5 h was -1.5%.

Regarding `CSCC(C)(O)CNS(=O)(=O)Cc1ccc(F)cc1` (configuration not stated), the cytotoxicity at 70.5 h is -11.7%.

With `CCOc1ccccc1NC(=O)NCC(C)(O)CCSC` (configuration not stated), the cytotoxicity at 70.5 h is -3.88%.

Regarding `COc1cccc(NC(=O)NCC(C)(O)CCSC)c1OC` (configuration not stated), the cytotoxicity at 70.5 h was -8.28%.

As for `CC(C)(C)C(O)CCNC(=O)c1ccc(F)cc1Cl` (configuration not stated), the cytotoxicity at 70.5 h was -16.1%.

For the compound `O=S(=O)(NCCC(O)c1cccs1)c1c(F)cccc1F` (configuration not stated), the cytotoxicity at 70.5 h was -14.6%.

With `COc1ccc(Cl)cc1NC(=O)CN1CCc2nc(NC(C)=O)sc2C1`, the cytotoxicity at 70.5 h turned out to be 18.9%.

For the compound `O=C(Nc1nc2c(s1)CN(S(=O)(=O)C1CC1)CC2)C1CC1`, the cytotoxicity at 70.5 h worked out at 27%.

With `COC(=O)Nc1nc2c(s1)CN(C(=O)NCc1cccs1)CC2`, the cytotoxicity at 70.5 h is -7.97%.

Consider `CC(C)NC(=O)Nc1nc2c(s1)CN(C(=O)NCc1cccs1)CC2`, for which the cytotoxicity at 70.5 h is -0.676%.

In the case of `O=C(Nc1nc2c(s1)CN(S(=O)(=O)C1CC1)CC2)c1ccsc1`, the cytotoxicity at 70.5 h is -12.1%.

With `COc1ccc(F)cc1S(=O)(=O)N1CCN(CCn2ccnc2)CC1`, the cytotoxicity at 70.5 h is -12.2%.

Turning to `O=S(=O)(NCC(O)c1ccc(C(F)(F)F)cc1)C1CC1` (configuration not stated), the cytotoxicity at 70.5 h came to 12.5%.

Take `O=S(=O)(NCC1(O)CCOc2ccccc21)c1ccc(Cl)s1` (configuration not stated): the cytotoxicity at 70.5 h was -6.65%.

Consider `O=C1CC(NS(=O)(=O)c2ccc(Cl)cc2)CN1` (configuration not stated), for which the cytotoxicity at 70.5 h was found to be 0.308%.

Take `O=C1CC(NS(=O)(=O)c2cccc(F)c2)CN1` (configuration not stated): the cytotoxicity at 70.5 h was found to be 5.76%.

Regarding `O=C1CC(NS(=O)(=O)c2ccc(F)c(Cl)c2)CN1` (configuration not stated), the cytotoxicity at 70.5 h was found to be 0.519%.

Take `COC(=O)c1ccc(S(=O)(=O)NC2CNC(=O)C2)cc1` (configuration not stated): the cytotoxicity at 70.5 h stood at 0.76%.

With `O=C(NC1CC(=O)N(C2CC2)C1)c1ccc(Cl)s1` (configuration not stated), the cytotoxicity at 70.5 h is -8.35%.

As for `CCS(=O)(=O)CCNC(=O)c1cc2n(n1)CCCO2`, the cytotoxicity at 70.5 h was -5.74%.

Turning to `O=C(c1cnn2c1OCCC2)N1CCC(Cc2ccccc2)CC1`, the cytotoxicity at 70.5 h was determined as 29.6%.

As to `CC(=O)c1ccc(N2CCN(C(=O)c3cnn4c3OCCC4)CC2)cc1`, the cytotoxicity at 70.5 h is 1.33%.

On to `O=C(c1cnn2c1OCCC2)N1CCN(C(=O)C2CCCO2)CC1` (configuration not stated), for which the cytotoxicity at 70.5 h was -5.75%.

With `CC(C)(C)OC(=O)N1CCN(C(=O)c2cnn3c2OCCC3)CC1`, the cytotoxicity at 70.5 h is -0.601%.

In the case of `CCc1ccc(S(=O)(=O)N2CC3(COC(C)(C)OC3)C2)s1`, the cytotoxicity at 70.5 h worked out at 14.1%.

On to `COc1ccc(C)cc1NC(=O)Nc1cnc(N2CCOCC2)nc1`, for which the cytotoxicity at 70.5 h is -0.928%.

In the case of `O=S(=O)(Nc1cnc(N2CCCC2)nc1)c1ccc(C(F)(F)F)cc1`, the cytotoxicity at 70.5 h was determined as 31.4%.

As to `O=S(=O)(Nc1cnc(N2CCCC2)nc1)c1ccc(OC(F)(F)F)cc1`, the cytotoxicity at 70.5 h is -4.76%.

Regarding `O=S(=O)(Nc1cnc(N2CCOCC2)nc1)c1ccc(Cl)cc1`, the cytotoxicity at 70.5 h is 3.18%.

With `CC(C)CN1CCC2(Cc3ccccc3NC2=O)C1` (configuration not stated), the cytotoxicity at 70.5 h is -4.52%.

On to `CCN1CCOCC2(CCCN(c3nncs3)C2)C1` (configuration not stated), for which the cytotoxicity at 70.5 h is -2.2%.

For `Cc1nnc([C@@H]2CCO[C@@H]3CCN(C(=O)Cc4ccccn4)C[C@@H]32)o1`, the cytotoxicity at 70.5 h is -0.42%.

On to `CN1CCN([C@@H]2CN(C(=O)c3ccsc3)[C@@H]3CCCO[C@H]23)CC1`, for which the cytotoxicity at 70.5 h is -2.84%.

Consider `CN1CCN([C@@H]2CN(C(=O)c3ccnnc3)[C@@H]3CCCO[C@H]23)CC1`, for which the cytotoxicity at 70.5 h is -3.3%.

In the case of `CCCN(CC)C(=O)c1nc2c(n1C)CCN(Cc1ccccc1)C2`, the cytotoxicity at 70.5 h was -4.66%.

Turning to `COCCC1COC2(CCN(C(C)=O)CC2)C1` (configuration not stated), the cytotoxicity at 70.5 h is -5.06%.

Turning to `CCN(CC)[C@@H]1CN(Cc2cnn(C)c2)[C@@H]2COC[C@H]12`, the cytotoxicity at 70.5 h is -5.97%.

In the case of `CN1CC[C@]2(CN(Cc3cccs3)C[C@H]2c2ccccc2)C1=O`, the cytotoxicity at 70.5 h was -4.05%.

In the case of `O=C(C1CC=CC1)N1CC[C@H]2[C@@H]1CCC(=O)N2c1ccccc1`, the cytotoxicity at 70.5 h is -3.86%.

For the compound `Cc1nnc([C@@H]2CC[C@@H]3[C@@H](CCN3CC3CCOCC3)O2)o1`, the cytotoxicity at 70.5 h was -1.38%.

`Cc1cc(C(=O)N2CCCC(n3cncn3)C2)no1` (configuration not stated): the cytotoxicity at 70.5 h is -0.711%.

Regarding `Cn1cnc2c1CCN(Cc1csc(-c3ccco3)n1)C2`, the cytotoxicity at 70.5 h turned out to be 15.3%.

As to `COc1cccc(-n2nnc(C(=O)N3CCC(C(N)=O)CC3)c2C)c1`, the cytotoxicity at 70.5 h is -8.91%.

Take `CC(C)CN1CC(C(=O)NCc2ccnc(-n3cccn3)c2)CC1=O` (configuration not stated): the cytotoxicity at 70.5 h was 12.8%.

With `COc1cccc(-n2nnc(C(=O)N3CCCCCC3)c2C)c1`, the cytotoxicity at 70.5 h was -12.9%.

On to `CCC1c2ccsc2CCN1C(=O)NCc1cccnc1N(C)C` (configuration not stated), for which the cytotoxicity at 70.5 h turned out to be 13%.

In the case of `CC(Nc1cccc(CN2CCOC2=O)c1)C(=O)Nc1ccccc1` (configuration not stated), the cytotoxicity at 70.5 h was -22.1%.

For `Cc1cccc(NC(=O)C(C)Nc2cccc(CN3CCOC3=O)c2)c1` (configuration not stated), the cytotoxicity at 70.5 h was -7.24%.

Turning to `Cn1ccc(CN2CCC(CC(=O)NC3CCCC3)CC2)cc1=O`, the cytotoxicity at 70.5 h came to 15%.

`Cn1cc(NC(=O)N2CCC(Cc3ccccc3)CC2)ccc1=O`: the cytotoxicity at 70.5 h was -2.61%.

For `CN(C)c1ccc(C(=O)N2CCCN(Cc3cnn(C)c3)CC2)nn1`, the cytotoxicity at 70.5 h was -8.42%.

With `c1cc(COc2ccc(CNC3CCc4ncnn4C3)cc2)ccn1` (configuration not stated), the cytotoxicity at 70.5 h was -2.99%.

`Cc1cc(C)n(C2CCCN(C(=O)Cc3cn4ccsc4n3)C2)n1` (configuration not stated): the cytotoxicity at 70.5 h was -13.1%.

For the compound `Cc1cnn(CC2CCCN2C(=O)c2ccc(-n3cccn3)nc2)c1` (configuration not stated), the cytotoxicity at 70.5 h was -1.39%.

Turning to `Cc1cnn(CC2CCCCN2C(=O)c2ccc(NC3CC3)nc2)c1` (configuration not stated), the cytotoxicity at 70.5 h is -4.98%.

Regarding `c1cnnc(N2CCCC2CNCc2nc(-c3ccco3)no2)c1` (configuration not stated), the cytotoxicity at 70.5 h was -14.5%.

For `CCN(CC)c1ccc(C(=O)N2CCCC(n3cncn3)C2)cn1` (configuration not stated), the cytotoxicity at 70.5 h was -4.12%.

`CC(C)(C)c1nc(CC(=O)N2CCCC(n3cncn3)C2)cs1` (configuration not stated): the cytotoxicity at 70.5 h was -1.77%.

Regarding `CNC(=O)c1ccc(C(=O)N2CCCCC2Cn2cc(C)cn2)cn1` (configuration not stated), the cytotoxicity at 70.5 h was -5.34%.

On to `Cc1cnn(CC2CCCN2C(=O)c2ccc(OCC3CC3)nc2)c1` (configuration not stated), for which the cytotoxicity at 70.5 h is -6.47%.

As to `c1ccc(COc2ccccc2CNC2CCc3ncnn3C2)cc1` (configuration not stated), the cytotoxicity at 70.5 h was -6.49%.

With `c1csc(CN2CC(c3nc(-c4cnccn4)no3)C2)c1`, the cytotoxicity at 70.5 h is -4.66%.

In the case of `c1cnc(-c2noc(C3CN(Cc4ccsc4)C3)n2)cn1`, the cytotoxicity at 70.5 h is -8.37%.

As for `CCOC(=O)CN1CC(c2nc(-c3ccsc3)no2)C1`, the cytotoxicity at 70.5 h amounted to 0.957%.

In the case of `O=C(CN1CC(c2nc(-c3ccco3)no2)C1)NCCc1ccccc1`, the cytotoxicity at 70.5 h is -11.2%.

Turning to `Clc1ccc(COCC2CCN(Cc3ccccn3)CC2)cc1`, the cytotoxicity at 70.5 h was -0.416%.

In the case of `CCS(=O)(=O)N1CCCC2(COCCN(c3nnc(C)o3)C2)C1` (configuration not stated), the cytotoxicity at 70.5 h was -1.84%.

On to `Cc1ncsc1CN1CCn2c(COCC3CC3)cnc2C1C` (configuration not stated), for which the cytotoxicity at 70.5 h is -2.63%.

As for `CC(C)NC(=O)C[C@H]1[C@H]2CN(C(=O)Cc3ccccn3)C[C@@H]12`, the cytotoxicity at 70.5 h was found to be 1.47%.

As to `CC(C)CN1CCCC2(CCN(c3ccc(C#N)cn3)C2)C1` (configuration not stated), the cytotoxicity at 70.5 h came out at 2.01%.

In the case of `CN1CC[C@]2(CN(Cc3nccs3)C[C@H]2c2ccccc2)C1=O`, the cytotoxicity at 70.5 h is 4.14%.

With `CNC(=O)[C@@H]1CC[C@@H]2[C@@H](CCN2Cc2cn(C)c3ccccc23)O1`, the cytotoxicity at 70.5 h was -3.34%.

For the compound `N#Cc1ccc(N2CCC3(CCCN(c4ccccn4)C3)C2)nc1` (configuration not stated), the cytotoxicity at 70.5 h was -1.5%.

`Fc1cnc(N2CC[C@@H]3O[C@H](COCc4ccccn4)CC[C@@H]32)nc1`: the cytotoxicity at 70.5 h is -3.08%.

On to `Cc1ccc(N2CC[C@@H]3O[C@@H](COCc4cccnc4)CC[C@@H]32)nn1`, for which the cytotoxicity at 70.5 h is -3.24%.

In the case of `CC(C)N1[C@@H](C(=O)NCCN(C)C)C[C@H]2CN(c3ncccn3)C[C@H]21`, the cytotoxicity at 70.5 h was -2.96%.
